From US8673909B2, “Indole compounds and methods for treating visceral pain” (NeurAxon, Inc., priority 2007, dated 2014) come the findings set out here.

pIC50: −log10 of the molar value.

The target in experiment [1] is Recombinant human inducible NOS (iNOS) (Homo sapiens, UniProt P35228). In words: Human iNOS assay, radiometric. In kind it is biochemical. The conditions noted are these: Table 10, human iNOS; read-out: iNOSh. The procedure: Recombinant human inducible NOS (iNOS) was produced in Baculovirus-infected Sf9 cells (ALEXIS). […] 15 μL of test substances are added to the mixture with the specific enzyme and pre-incubated at RT for 15 min. • 2. […] The incubation is carried out at 37° C. for 45 min. • 4. […] An aliquot 70 μL of the supernatant is added to 100 μL scintillation fluid. • 8.
The total volume of the reaction mixture is 150 μL in every well. All assays are performed at least in duplicate. Standard deviations are 10% or less.

Another experiment has as its target T1, 5-HT1B (Rattus norvegicus, UniProt P28564).
T1 construct: from tissue; host or cells: rat cerebral cortex
In words: 5-HT1B binding assay (agonist radioligand), rat cerebral cortex. The conditions noted are these: Table 11, rat 1B receptor binding. On the procedure: 5-HT1D binding assays (agonist radioligand) were performed using bovine caudate membranes according to the methods of Heuring and Peroutka (J. Neurosci., 7: 894-903 (1987)). 5-HT1B (rat cerebral cortex) binding assays (agonist radioligand) were performed according to the method of Hoyer et. al. (Eur. J. Pharmacol., 118: 1-12 (1995)). For the purpose of result analysis, the specific ligand binding to the receptors is defined as the difference between the total binding and the nonspecific binding as determined in the presence of an excess of unlabelled ligand. The results are expressed as a percent of control specific binding obtained in the presence of the test compounds. IC50 values (concentration causing a half-maximal inhibition of control specific binding) and Hill coefficients (nH) were determined by non-linear regression analysis of the competition curves using Hill equation curve fitting and the inhibition constants (Ki) were calculated from the Cheng Prusoff equation (Ki=IC50/(1+(L/KD)), where L=concentration of radioligand in the assay, and KD=affinity of the radioligand for the receptor).

Experiment [2] concerns rats with experimental pancreatitis. Put plainly: Pancreatitis visceral pain model (DBTC), referred abdominal hypersensitivity, von Frey. In kind it is in vivo, rat. The procedure: Adult male Sprague Dawley rats (Harlan, Indianapolis, Ind.), weighing 150-200 g were maintained in a climate-controlled room with ad lib food and water on a 12-h light/dark cycle (lights on at 07:00 hours). All procedures followed the policies of the International Association for the Study of Pain and the NIH guidelines for the handling and use of laboratory animals. Studies were approved by the University of Arizona IACUC.
Pancreatitis was produced by a tail vein injection of dibutyltin dichloride (DBTC, Aldrich, Milwaukee, Wis., 0.25 cc) dissolved in 100% ethanol at a dose of 8 mg/kg under isofluorane anesthesia (2-3 liters/min, 4.0%/vol until anesthetized, then 2.5%/vol throughout the procedure) (Vera-Portocarrero et al., 2006). Control animals were injected with the vehicle solution only (100% ethanol, 0.25 cc).
Referred abdominal hypersensitivity in the pancreatitis model was quantified by measuring the number of withdrawals events evoked by application of a calibrated von Frey filament (determined by either abdominal withdrawal, licking of the abdominal area, or whole body withdrawal). Rats were placed inside Plexiglas boxes on an elevated fine fiberglass screen mesh and acclimated for 30 minutes before testing. A 4 g von Frey filament was applied from underneath through the mesh floor, to the abdominal area at different points on the surface. […] The mean occurrence of withdrawal events in each trial is expressed as the number of responses to 10 applications as previously described (Vera-Portocarrero et al., 2003).
Significant differences between each experimental group for the behavioral test across time were detected by a two-factor ANOVA follow by the Fishers Least Significance Difference post-hoc test. One-factor ANOVA was used to detect significant differences in behavioral outcomes within each experimental group over time. A linear regression analysis was used to detect the dose-dependency of the effects. Significance was established at the p<0.05 level.

For experiment [3], the target named is T2, Nitric oxide synthase (endothelial, human recombinant) eNOS (Homo sapiens, UniProt P29474).
T2 construct: purchased Axxora LLC ALX-201-070
In words: eNOS (human) enzyme assay, [3H]-L-arginine to L-citrulline. In kind it is biochemical. The conditions noted are these: Table 10, human eNOS; read-out: eNOSh.
Method: Human nNOS and eNOS Protocol:
Procedure for Human nNOS and eNOS
Primary stock solutions of test compounds at a concentration of 6 mM are prepared. The primary stock solutions of each test compound are prepared freshly in distilled water on the day of study. […] Concentration range of test compound utilized for nNOS are 0.001 to 300 μM and for eNOS are 0.003 to 1000 μM. The vehicle of the test compound or inhibitor is used as blank control. […] The IC50 concentration of L-NAME was run in parallel as a control.
All incubations are performed in duplicate:
Prepare the reaction mixture on ice by adding the following components with a micropipette to a polypropylene microcentrifuge tube:
Start the reaction by addition of the substrate (in 5 µL containing 1 μCi of [^3H]-L-Arginine+2.5 μM of unlabeled L-Arginine) to the reaction mixture. Total reaction volume is 60 μL.
Mix using a vortex mixer and incubate the above reaction mixture at 37° C. in an incubator for 30 minutes.
Add 400 μL of ice-cold Stop Buffer at the end of the incubation period to stop the reaction. (The EDTA in the Stop Buffer chelates all of the available calcium.)
Mix using a vortex mixer and transfer the reaction samples to spin cups and centrifuge using a microcentrifuge, at 13,000 rpm for 30 sec. at room temperature.
Remove the spin cups from the holder and transfer 450 μL of eluate (containing the unbound L-citrulline) to scintillation vials. Add 3 mL of scintillation fluid and quantify the radioactivity in a liquid scintillation counter.
Calculation of IC50 Values:
Data is analyzed using a Sigmoidal dose-response (variable slope) curve to determine the IC50 value of the test compound. Y=Bottom+(Top−Bottom)/(1+10^((Log IC50−X)*Hill Slope))

T2 sequence (P29474 whole entry): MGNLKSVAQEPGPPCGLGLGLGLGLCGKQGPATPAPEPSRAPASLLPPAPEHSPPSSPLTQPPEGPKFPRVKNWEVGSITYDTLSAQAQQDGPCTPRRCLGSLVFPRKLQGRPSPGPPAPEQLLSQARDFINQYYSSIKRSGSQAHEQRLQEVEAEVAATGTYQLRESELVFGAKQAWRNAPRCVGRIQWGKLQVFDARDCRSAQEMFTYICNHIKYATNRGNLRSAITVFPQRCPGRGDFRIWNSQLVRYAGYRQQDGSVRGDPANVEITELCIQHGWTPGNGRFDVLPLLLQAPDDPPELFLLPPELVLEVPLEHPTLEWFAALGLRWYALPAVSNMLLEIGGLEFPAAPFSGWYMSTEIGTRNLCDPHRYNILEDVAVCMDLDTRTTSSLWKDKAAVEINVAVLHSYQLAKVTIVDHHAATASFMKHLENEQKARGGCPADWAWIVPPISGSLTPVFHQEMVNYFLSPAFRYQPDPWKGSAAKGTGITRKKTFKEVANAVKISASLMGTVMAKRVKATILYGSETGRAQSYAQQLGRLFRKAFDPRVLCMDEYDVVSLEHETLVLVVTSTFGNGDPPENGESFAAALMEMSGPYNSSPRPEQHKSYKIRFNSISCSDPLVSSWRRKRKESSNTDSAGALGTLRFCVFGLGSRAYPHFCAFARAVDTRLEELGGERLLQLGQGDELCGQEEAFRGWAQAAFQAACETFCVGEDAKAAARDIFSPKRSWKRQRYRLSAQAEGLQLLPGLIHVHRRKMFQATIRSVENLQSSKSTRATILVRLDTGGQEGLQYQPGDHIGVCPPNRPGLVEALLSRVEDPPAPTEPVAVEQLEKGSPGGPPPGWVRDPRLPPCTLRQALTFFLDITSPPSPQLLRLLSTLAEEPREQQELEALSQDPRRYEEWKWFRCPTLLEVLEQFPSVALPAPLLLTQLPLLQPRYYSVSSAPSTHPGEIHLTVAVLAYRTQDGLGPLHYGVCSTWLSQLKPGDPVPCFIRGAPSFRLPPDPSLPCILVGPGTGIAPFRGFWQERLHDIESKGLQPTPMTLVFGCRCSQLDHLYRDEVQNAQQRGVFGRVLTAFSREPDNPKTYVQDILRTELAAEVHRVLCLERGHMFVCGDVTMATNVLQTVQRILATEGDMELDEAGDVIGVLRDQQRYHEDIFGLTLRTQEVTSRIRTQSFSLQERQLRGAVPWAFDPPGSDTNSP
T1 sequence (P28564 whole entry): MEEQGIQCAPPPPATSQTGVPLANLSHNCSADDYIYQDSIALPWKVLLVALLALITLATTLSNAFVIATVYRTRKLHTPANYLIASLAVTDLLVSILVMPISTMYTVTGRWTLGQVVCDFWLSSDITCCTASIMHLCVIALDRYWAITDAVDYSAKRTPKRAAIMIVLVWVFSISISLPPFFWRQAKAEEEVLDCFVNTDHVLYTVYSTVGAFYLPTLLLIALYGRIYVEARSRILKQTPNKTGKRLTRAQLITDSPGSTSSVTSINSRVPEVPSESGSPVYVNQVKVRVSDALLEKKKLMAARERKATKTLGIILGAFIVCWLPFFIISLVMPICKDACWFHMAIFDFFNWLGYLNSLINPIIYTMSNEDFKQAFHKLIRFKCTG

As for `CN1CCC(c2c[nH]c3ccc(NC(=N)c4cccs4)cc23)C1` (single isomer, unassigned) [Compound 6a, N-(3-(1-Methylpyrrolidin-3-yl)-1H-indol-5-yl)thiophene-2-carboximidamide], the pIC50 in experiment [1] is 4.60; on 5-HT1B, 5.85; in experiment [3], 4.34. The “reversal of tactile allodynia in pancreatitis visceral pain model” value in experiment [2] was “does not reverse tactile allodynia”.

For `CN1CCC(c2c[nH]c3ccc(NC(=N)c4cccs4)cc23)C1` (single isomer, unassigned) [Compound 6b, N-(3-(1-Methylpyrrolidin-3-yl)-1H-indol-5-yl)thiophene-2-carboximidamide], the pIC50 in experiment [1] was 4.70; on 5-HT1B it was 6.15; in experiment [3], 4.69. For the same compound, the “reversal of tactile allodynia in pancreatitis visceral pain model” value in experiment [2] is “reverse the tactile allodynia”.
